Assay results published in patent US8865911B2, “Compounds and their use as BACE inhibitors” (Astrazeneca AB, priority 2010, dated 2014).

Legend:
[1] = tested on: sAPPβ release, SH-SY5Y cells; test: sAPPβ release assay; type: cell-based; conditions: compounds incubated 17 h, MSD detection
Method: Thaw cells and seed at a conc. of around 10000 cells/well in DMEM/F-12 with Glutamax, 10% FCS and 1% non-essential amino acids to a 384-well tissue culture treated plate, 100 μL cell susp/well. […] The cell medium was removed, followed by addition of 30 μL compound diluted in DMEM/F-12 with Glutamax, 10% FCS, 1% non-essential amino acids and 1% PeSt to a final conc. of 1% DMSO. The compounds were incubated with the cells for 17 h (overnight) at 37° C., 5% CO2. Meso Scale Discovery (MSD) plates were used for the detection of sAPPβ release. MSD sAPPβ plates were blocked in 1% BSA in Tris wash buffer (40 μL/well) for 1 h on shake at r.t. and washed 1 time in Tris wash buffer (40 μL/well). 20 μL of medium was transferred to the pre-blocked and washed MSD sAPPβ microplates, and the cell plates were further used in an ATP assay to measure cytotoxicity. The MSD plates were incubated with shaking at r.t. for 2 h and the media discarded. 10 μL detection antibody was added (1 nM) per well followed by incubation with shaking at r.t. for 2 h and then discarded. 40 μL Read Buffer was added per well and the plates were read in a SECTOR Imager.

human β-Secretase [2] = molecular target: T1, human β-Secretase (Homo sapiens (Human), UniProt P56817); test: Diluted TR-FRET assay; type: biochemical; conditions: values marked ^a; 50 times less enzyme, 6.5 h reaction time at r.t. in the dark; read-out: IC50 in TR-FRET assay (IC50 from the diluted FRET assay)
Method: (§1) The β-secretase enzyme used in the TR-FRET is prepared as follows: The cDNA for the soluble part of the human β-Secretase (AA 1-AA 460) was cloned using the ASP2-Fc10-1-IRES-GFP-neoK mammalian expression vector. The gene was fused to the Fc domain of IgG1 (affinity tag) and stably cloned into HEK 293 cells.
The robotic systems Biomek FX and Velocity 11 were used for all liquid handling and the enzyme and substrate solutions were kept on ice until they were placed in the robotic system. Enzyme (9 μl) was added to the plate then 1 μl of compound in dimethylsulphoxide was added, mixed and pre-incubated for 10 minutes. […] The reaction was stopped with the addition of Stop solution (7 μl, NaAcetate, pH 9). […] The dimethylsulphoxide control, instead of test compound, defined the 100% activity level and 0% activity was defined by wells lacking enzyme (replaced with reaction buffer).

human β-Secretase [3] = molecular target: T1, human β-Secretase; test: TR-FRET assay; type: biochemical; conditions: sBACE-Fc, substrate (Europium)CEVNLDAEFK(Qsy7) 100 nM, pH4.5, 15 minutes at r.t.
Method: as §1
The robotic systems Biomek FX and Velocity 11 were used for all liquid handling and the enzyme and substrate solutions were kept on ice until they were placed in the robotic system. Enzyme (9 μl) was added to the plate then 1 μl of compound in dimethylsulphoxide was added, mixed and pre-incubated for 10 minutes. Substrate (10 μl) was then added, mixed and the reaction proceeded for 15 minutes at r.t. The reaction was stopped with the addition of Stop solution (7 μl, NaAcetate, pH 9). […] The dimethylsulphoxide control, instead of test compound, defined the 100% activity level and 0% activity was defined by wells lacking enzyme (replaced with reaction buffer).

T1 sequence (P56817 22-460): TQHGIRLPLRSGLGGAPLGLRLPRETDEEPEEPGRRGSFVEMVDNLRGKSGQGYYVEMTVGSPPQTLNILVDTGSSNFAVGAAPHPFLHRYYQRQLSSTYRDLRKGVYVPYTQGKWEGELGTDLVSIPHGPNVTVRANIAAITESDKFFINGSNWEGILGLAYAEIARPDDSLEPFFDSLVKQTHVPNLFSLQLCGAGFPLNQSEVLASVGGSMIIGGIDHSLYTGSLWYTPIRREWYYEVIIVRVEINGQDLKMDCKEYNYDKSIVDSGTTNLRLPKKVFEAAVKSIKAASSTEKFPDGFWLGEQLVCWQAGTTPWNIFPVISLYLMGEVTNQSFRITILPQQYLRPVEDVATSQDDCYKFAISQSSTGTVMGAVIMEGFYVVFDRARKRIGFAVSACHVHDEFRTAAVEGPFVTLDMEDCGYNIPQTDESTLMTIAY

Row | IC50 (human β-Secretase [2]) | Compound | further results
1 | – | CO[C@H]1CC[C@]2(CC1)Cc1ccc(C#CC(C)(C)C)cc1C21N=C(C)C(N)=N1 (single isomer, unassigned; isomer 1) [Example 20h Isomer 1, (1r,4r)-6′-(3,3-dimethylbut-1-yn-1-yl)-4-methoxy-5″-methyl-3′H-dispiro[cyclohexane-1,2′-indene-1′,2″-imidazol]-4″-amine] | IC50 [1]: 277 nM
2 | 5.3 nM | CCc1cc(C#N)cc(-c2ccc3c(c2)C2(N=C(C)C(N)=N2)[C@]2(CC[C@H](OC)CC2)C3)c1 (stereo partly drawn) [Example 95, 3-[(1r,4r)-4″-Amino-4-methoxy-5″-methyl-3′H-dispiro[cyclohexane-1,2′-indene-1′,2″-imidazol]-6′-yl]-5-ethylbenzonitrile] | –
3 | 1 nM | COc1cc(C#N)cc(-c2ccc3c(c2)[C@@]2(N=C(C)C(N)=N2)[C@]2(CC[C@H](OC(F)F)CC2)C3)c1 (racemic) [Example 106, 3-[(1r,4r)-4″-Amino-4-(difluoromethoxy)-5″-methyl-3′H-dispiro[cyclohexane-1,2′-indene-1′,2″-imidazol]-6′-yl]-5-methoxybenzonitrile] | –
4 | 13 nM | CO[C@H]1CC[C@]2(CC1)Cc1ccc(-c3ccccc3)cc1[C@@]21N=C(C)C(N)=N1 [Example 90, (1r,1′R,4R)-4-Methoxy-5″-methyl-6′-phenyl-3′H-dispiro[cyclohexane-1,2′-indene-1′,2″-imidazol]-4″-amine] | –
5 | 1.5 nM | CO[C@H]1CC[C@]2(CC1)Cc1ccc(-c3cc(C#N)cc(C(F)F)c3)cc1[C@@]21N=C(C)C(N)=N1 [Example 86, 3-[(1r,1′R,4R)-4″-Amino-4-methoxy-5″-methyl-3′H-dispiro[cyclohexane-1,2′-indene-1′,2″-imidazol]-6′-yl]-5-(difluoromethyl)benzonitrile] | –
6 | 1.5 nM | COc1ccc(F)c(-c2ccc3c(c2)[C@@]2(N=C(C)C(N)=N2)[C@]2(CC[C@H](OC)CC2)C3)c1 [Example 98, (1r,1′R,4R)-6′-(2-Fluoro-5-methoxyphenyl)-4-methoxy-5″-methyl-3′H-dispiro[cyclohexane-1,2′-indene-1′,2″-imidazol]-4″-amine] | –
7 | 19 nM | CO[C@H]1CC[C@]2(CC1)Cc1ccc(-c3cc(Cl)cnc3C)cc1C21N=C(C)C(N)=N1 (stereo partly drawn) [Example 62, (1r,4r)-6′-(5-Chloro-2-methylpyridin-3-yl)-4-methoxy-5″-methyl-3′H-dispiro[cyclohexane-1,2′-indene-1′,2″-imidazol]-4″-amine] | –
8 | – | CO[C@H]1CC[C@]2(CC1)Cc1ccc(-c3cc(F)cc(C#N)c3)cc1C21N=C(C)C(N)=N1 (single isomer, unassigned; isomer 1) [Example 76 Isomer 1, 3-[(1r,4r)-4″-amino-4-methoxy-5″-methyl-3′H-dispiro[cyclohexane-1,2′-indene-1′,2″-imidazol]-6′-yl]-5-fluorobenzonitrile] | IC50 [1]: 1.2 nM
9 | 5.5 nM | CO[C@H]1CC[C@]2(CC1)Cc1ccc(-c3cncc(F)c3)cc1C21N=C(C)C(N)=N1 (stereo partly drawn) [Example 20f, (1r,4r)-6′-(5-Fluoropyridin-3-yl)-4-methoxy-5″-methyl-3′H-dispiro[cyclohexane-1,2′-indene-1′,2″-imidazol]-4″-amine] | –
10 | 4.9 nM | CC#Cc1cc(-c2ccc3c(c2)C2(N=C(C)C(N)=N2)[C@]2(CC[C@H](OC)CC2)C3)ccn1 (stereo partly drawn) [Example 20y, (1r,4r)-4-Methoxy-5″-methyl-6′-[2-(prop-1-yn-1-yl)pyridin-4-yl]-3′H-dispiro[cyclohexane-1,2′-indene-1′,2″-imidazol]-4″-amine] | –
11 | 5.2 nM | COC1CCC2(CC1)Oc1ccc(-c3cncc(Cl)c3)cc1C21N=C(C)C(N)=N1 (stereo not drawn) [Example 30d, 5′-(5-Chloropyridin-3-yl)-4-methoxy-5′-methyldispiro[cyclohexane-1,2′-[1]benzofuran-3′,2″-imidazol]-4″-amine] | –
12 | – | CC1=NC2(CC3(CCCOC3)Oc3ccc(-c4ccc(F)c(Cl)c4)cc32)N=C1N (single isomer, unassigned) [Example 46b Isomer 1, 6′-(3-Chloro-4-fluorophenyl)-5-methyl-5″,6″-dihydro-4′H-dispiro[imidazole-2,4′-chromene-2′,3″-pyran]-4-amine] | IC50 [1]: 426 nM
13 | 21 nM | CCC1=NC2(N=C1N)c1cc(-c3cncc(C#N)c3)ccc1C[C@]21CC[C@@H](OC)CC1 (stereo partly drawn) [Example 69, 5-[(1r,4r)-4″-Amino-5″-ethyl-4-methoxy-3′H-dispiro[cyclohexane-1,2′-indene-1′,2″-imidazol]-6′-yl]pyridine-3-carbonitrile] | –
14 | – | CCC1=NC2(N=C1N)c1cc(-c3cccc(C#N)c3)ccc1C[C@]21CC[C@@H](OC)CC1 (single isomer, unassigned) [Example 71 Isomer 2, 3-[(1r,4r)-4″-amino-5″-ethyl-4-methoxy-3′H-dispiro-[cyclohexane-1,2′-indene-1′,2″-imidazol]-6′-yl]benzonitrile] | IC50 ([1]; listed as 71 Isomer 2): 763 nM
15 | – | CCC1=NC2(N=C1N)c1cc(-c3cncc(Cl)c3)ccc1C[C@]21CC[C@@H](OC)CC1 (single isomer, unassigned) [Example 66 Isomer 1, (1r,4r)-6′-(5-chloropyridin-3-yl)-5″-ethyl-4-methoxy-3′H-dispiro[cyclohexane-1,2′-indene-1′,2″-imidazol]-4″-amine] | IC50 ([1]; Homo sapiens, SH-SY5Y, 17 h): 1.6 nM
16 | 1.4 nM | CC#Cc1cncc(-c2ccc3c(c2)C2(N=C(C)C(N)=N2)C2(CCC(OC)CC2)O3)c1 (stereo not drawn) [Example 30c] | –
17 | – | CC1=NC2(N=C1N)c1cc(Br)ccc1CC21CCC1 (stereo not drawn) [Example 54, 6′-Bromo-5″-methyl-3′H-dispiro[cyclobutane-1,2′-indene-1′,2″-imidazol]-4″-amine] | IC50 (human β-Secretase [3]): 6610 nM
18 | 18 nM | CO[C@H]1CC[C@]2(CC1)Cc1ccc(NC(=O)c3ncc(Cl)cc3C)cc1C21N=C(C)C(N)=N1 (stereo partly drawn) [Example 20w, N-[(1r,4r)-4″-Amino-4-methoxy-5″-methyl-3′H-dispiro[cyclohexane-1,2′-indene-1′,2″-imidazol]-6′-yl]-5-chloro-3-methylpyridine-2-carboxamide] | –
19 | 2.3 nM | CC#Cc1ccnc(-c2ccc3c(c2)C2(N=C(C)C(N)=N2)[C@]2(CC[C@H](OC)CC2)C3)c1 (stereo partly drawn) [Example 20b, (1r,4r)-4-Methoxy-5″-methyl-6′-[4-(prop-1-yn-1-yl)pyridin-2-yl]-3′H-dispiro[cyclohexane-1,2′-indene-1′,2″-imidazol]-4″-amine] | –
20 | 2.6 nM | CO[C@H]1CC[C@]2(CC1)Cc1ccc(-c3cc(C)cc(C#N)c3)cc1C21N=C(C)C(N)=N1 (stereo partly drawn) [Example 74, 3-[(1r,4r)-4″-Amino-4-methoxy-5″-methyl-3′H-dispiro[cyclohexane-1,2′-indene-1′,2″-imidazol]-6′-yl]-5-methylbenzonitrile] | –
21 | 3.9 nM | CO[C@H]1CC[C@]2(CC1)Cc1ccc(-c3cc(F)ccc3F)cc1[C@@]21N=C(C)C(N)=N1 [Example 99, (1r,1′R,4R)-6′-(2,5-Difluorophenyl)-4-methoxy-5′-methyl-3′H-dispiro[cyclohexane-1,2′-indene-1′,2″-imidazol]-4″-amine] | –
22 | – | CC1=NC2(N=C1N)c1cc(-c3cc(F)cc(C#N)c3)ccc1CC21CCC(=O)CC1 (stereo not drawn) [Example 115, 3-(4″-Amino-5″-methyl-4-oxodispiro[cyclohexane-1,2′-[1H]indene-1′(3′H),2″-[2H]imidazol]-6′-yl)-5-fluorobenzonitrile] | IC50 (human β-Secretase [3]): 632 nM
23 | 1.3 nM | CC1=NC2(N=C1N)c1cc(-c3cc(Cl)cc(C#N)c3)ccc1C[C@]21CC[C@@H](OC(F)F)CC1 (stereo partly drawn) [Example 108, 3-[(1r,4r)-4″-Amino-4-(difluoromethoxy)-5″-methyl-3′H-dispiro[cyclohexane-1,2′-indene-1′,2″-imidazol]-6′-yl]-5-chlorobenzonitrile] | –
24 | – | CC1=NC2(CC(C3CCCOC3)Oc3ccc(Br)cc32)N=C1N (single isomer, unassigned) [Example 47 Isomer 8, 6-Bromo-5′-methyl-2-(tetrahydro-2H-pyran-3-yl)spiro[chromane-4,2′-imidazole]-4′-amine] | IC50 (human β-Secretase [3]): 8100 nM
